Measured values from patent US20120065153A1, “AZASUGAR DERIVATIVES, HEPARANASE INHIBITORS, METHOD FOR PREPARING SAME, COMPOSITIONS CONTAINING SAME, USE THEREOF” (SANOFI-AVENTIS, priority 2004, published 2012).

Assays:
HT1080 tumour cells = assay: Invasion of HT1080 tumour cells through Matrigel (cell invasion test); format: cell-based, human
Experimental: The effect of the compounds of formula (I), inhibitors of heparanases, was tested in vitro on the invasion of HT1080 tumour cells.
The cells derived from human fibrosarcomas, HT1080 (ATCC CCL-121) are cultured in a DMEM medium (Ref.: GIBCO 11960-044) containing 5% Foetal Calf Serum, glutamine (2 mM) (Ref.: GIBCO 25030-024), sodium pyruvate (1 mM) (Ref.: GIBCO 11360-039) and nonessential amino acids (1×) (Ref.: GIBCO 11140-035), on collagen coated flasks (Becton Dickinson 75 cm^2; Ref. 354523), to 50 to 80% confluence.
The measurements of invasion of the HT1080 cells are carried out on a Becton Dickinson falcon HTS Fluoroblock Multiwell Insert System kit in 24-well plates (Ref.: 351158). These measurement chambers give the cells the conditions which make it possible to evaluate their invasive properties in vitro.
The kit is composed of a plate combined with culture inserts containing a PET membrane pierced with 8 micron pores on which a uniform Matrigel Matrix (Becton Dickinson; Ref. 354230) layer is deposited.
Matrigel is a soluble basal membrane extracted from the EHS (Engelbreth-Holm-Swarm) tumour which, by virtue of its composition, forms, upon solidifying, a structure equivalent to a basal membrane.
The Matrigel layer blocks the pores of the membrane, thus blocking the migration of the noninvasive cells across the membrane. By contrast, the invasive (tumour or nontumour) cells will be capable of becoming detached and of invading the Matrigel layer before migrating across the membrane.
The quantification of the cell migration is carried out by labelling with calcein AM (Molecular Probes C-3100). The fluorescent signal emitted is measured with the aid of a Perkin Elmer Wallac VICTOR 3 reader and may be directly correlated with the number of cells which have invaded the Matrigel gel. By comparing them with controls made in the same experiment as the products studied (response in the presence of 0% and 5% foetal calf serum), it is possible to determine a percentage inhibition of cell invasion in the presence of the products.

heparanase = target: T1, heparanase (Homo sapiens, UniProt Q9Y251); assay: Heparanase inhibition in an enzymatic system (degradation of fondaparinux, read out by anti-factor Xa activity); format: biochemical; settings: mean±SD, done on two assays
T1 sequence (Q9Y251 36-543): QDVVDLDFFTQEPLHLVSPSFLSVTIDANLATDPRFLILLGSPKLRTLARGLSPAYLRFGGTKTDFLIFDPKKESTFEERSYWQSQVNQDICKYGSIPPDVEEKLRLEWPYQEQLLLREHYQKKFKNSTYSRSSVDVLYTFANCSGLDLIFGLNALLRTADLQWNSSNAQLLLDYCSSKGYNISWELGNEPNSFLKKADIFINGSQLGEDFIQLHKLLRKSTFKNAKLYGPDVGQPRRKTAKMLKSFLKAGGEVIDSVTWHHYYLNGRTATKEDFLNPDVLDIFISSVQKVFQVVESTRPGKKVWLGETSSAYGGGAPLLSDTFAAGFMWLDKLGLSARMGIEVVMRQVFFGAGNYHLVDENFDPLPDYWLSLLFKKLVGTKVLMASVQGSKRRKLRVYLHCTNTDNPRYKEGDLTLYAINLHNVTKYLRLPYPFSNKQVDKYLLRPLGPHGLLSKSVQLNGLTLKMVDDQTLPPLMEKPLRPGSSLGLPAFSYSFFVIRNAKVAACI
Experimental: The concentration of fondaparinux is determined by means of its anti-factor Xa activity.
The heparanase is produced by Sanofi-Synthelabo (Labège, France).
The reagents for assaying factor Xa are marketed by Chromogénix (Montpellier, France).
Increasing concentrations of a compound according to the invention, an inhibitor of heparanases (varying dilutions: from 1 nM to 10 μM) are mixed at a fixed heparanase concentration (for each batch, preliminary experiments make it possible to determine the enzymatic activity which is sufficient for the degradation of 0.45 μg/ml of added fondaparinux). After 5 minutes at 37° C., the mixture is exposed to fondaparinux and left for 1 hour at 37° C. The reaction is stopped by heating at 95° C. for 5 minutes. The residual fondaparinux concentration is finally measured by adding factor Xa and its specific chromogenic substrate (Ref. S2222).
The various mixtures are produced according to the following procedure:
50 μl of sodium acetate buffer (0.2 M, pH 4.2) are mixed with 50 μl of fondaparinux (0.45 μg/ml) and 59 μl of a heparanase solution. The mixture is incubated for 1 hour at 37° C. and then for 5 minutes at 95° C. […]
The anti-factor Xa activity of fondaparinux is measured in the following manner: […]
The optical density is read at 405 nm.
A percentage inhibition is determined relative to control without inhibitor. […]

SMILES	inhibition of cell invasion (HT1080 tumour cells; 0.3 μM) [%]	inhibition of cell invasion (HT1080 tumour cells; 1 μM) [%]	inhibition of cell invasion (HT1080 tumour cells; 10 μM, four independent determinations, mean±standard deviation) [%]	effect on cell invasion as a function of dose (HT1080 tumour cells; HT1080 cells)	IC50 (heparanase) [µM]
CC(=O)N[C@H]1[C@@H](O[C@H]2[C@H](O)CNC[C@@H]2C(=O)O)O[C@H](COS(=O)(=O)O)[C@@H](O[C@@H]2O[C@@H](C(=O)O)[C@@H](O[C@H]3O[C@H](COS(=O)(=O)O)[C@@H](O[C@@H]4O[C@@H](C(=O)O)[C@@H](OS(=O)(=O)O)[C@H](O)[C@H]4OS(=O)(=O)O)[C@H](O)[C@H]3NC(C)=O)[C@H](O)[C@H]2OS(=O)(=O)O)[C@@H]1O.[Na+].[Na+].[Na+].[Na+].[Na+].[Na+].[Na+].[Na+] [compound No. 20, (2,4-di-O-sodium sulphonato-α-L-idopyranosyluronate of sodium)-(1-4)-(2-acetamido-2-deoxy-6-O-sodiumsulphonato-α-D-glucopyranosyl)-(1-4)-(2-O-sodiumsulphonato-α-L-idopyranosyluronate of sodium)-(1-4)-(2-acetamido-2-deoxy-6-O-sodiumsulphonato-α-D-glucopyranosyl)-(1-4)-(5-(hydroxy)-4-oxypiperidine-3-carboxylate of sodium (3S,4R,5R))]	26±3	53±11	40.3±8.3	dose-dependent effect	–
O=C(O)[C@H]1CNC[C@@H](O)[C@@H]1O[C@H]1O[C@H](COS(=O)(=O)O)[C@@H](O[C@@H]2O[C@@H](C(=O)O)[C@@H](O[C@H]3O[C@H](COS(=O)(=O)O)[C@@H](O[C@@H]4O[C@@H](C(=O)O)[C@@H](OS(=O)(=O)O)[C@H](O)[C@H]4OS(=O)(=O)O)[C@H](O)[C@H]3NS(=O)(=O)O)[C@H](O)[C@H]2OS(=O)(=O)O)[C@H](O)[C@H]1NS(=O)(=O)O [compound No. 27, (2,4-di-O-sodium sulphonato-α-L-idopyranosyluronate of sodium)-(1-4)-(2-N-sodiumsulphonato-2-deoxy-6-O-sodiumsulphonato-α-D-glucopyranosyl)-(1-4)-(2-O-sodiumsulphonato-α-L-idopyranosyluronate of sodium)-(1-4)-(2-N-sodiumsulphonato-2-deoxy-6-O-sodiumsulphonato-α-D-glucopyranosyl)-(1-4)-(5-(hydroxy)-4-oxypiperidine-3-carboxylate of sodium (3S,4R,5R))]	–	–	–	–	0.011 ± 0.004
